Patent US20140179766A1, “IDENTIFICATION OF THROMBOSIS OR BLEEDING RISK IN AN INDIVIDUAL WITH AND WITHOUT ANTI-PLATELET THERAPY” (ROYAL COLLEGE OF SURGEONS IN IRELAND, priority 2011, published 2014)

System: 11-dehydro-thromboxane B2 (TxM)
Test: Urinary TxM (11-dehydro-thromboxane B2) by liquid chromatography/tandem mass spectrometry in participants of the HACVD sub-study of ASCOT
Format: in vivo, human
Conditions: SNP association with TxM seen only in patients not taking aspirin
Description: The genetic determinants of urinary TxM were investigated. 540 participants in the Hypertension Associated Cardiovascular Disease (HACVD) sub-study of ASCOT gave urine samples at two separate time-points. TxM was measured using liquid chromatography/tandem mass spectrometry, expressed as pg/mg creatinine to correct for urine concentration. All subjects were genotyped on the CVD50K chip, a cardiovascular-specific chip with >50,000 SNPs. Usual quality control measures were applied. Linear regression analysis was performed, assuming an additive genetic model, adjusting for the covariates; age, sex, smoking habit, diabetes, systolic blood pressure, BMI, HDL, LDL, aspirin and anti-hypertensive regimen.
Most interesting of all was the observation that the association of TxM with the 21 PPARGC1β gene SNPs was almost totally driven by the patients not taking aspirin (beta-values range; +184-+392 pg/mg p-values range; 0.00002-0.06), whilst associations between these same 21 SNPs and TxM amongst aspirinated subjects were in large part not statistically significant (beta-values range; −10-+134 pg/mg p-values range; 0.02-0.97).

CC(=O)Oc1ccccc1C(=O)O [aspirin] was tested, and the “Effect on excess production of thromboxane in carriers of PPARGC1β genetic variants” value was “completely, or in large part, blocks the excess production of thromboxane”.
